Data: patent publication EP2970215B1, “PYRROLIDINE DERIVATIVES, PHARMACEUTICAL COMPOSITIONS CONTAINING THEM, AND THEIR USE IN THERAPY” (AbbVie Deutschland GmbH & Co. KG, priority 2013, dated 2014)

Target: T1, human GlyT1c transporter (Homo sapiens, UniProt P48067)
T1 construct: expressed in transfected cells; host or cells: CHO cells (recombinant; line hGlyT1c_5_CHO is named for the uptake assay)
T1 sequence (P48067 1-706): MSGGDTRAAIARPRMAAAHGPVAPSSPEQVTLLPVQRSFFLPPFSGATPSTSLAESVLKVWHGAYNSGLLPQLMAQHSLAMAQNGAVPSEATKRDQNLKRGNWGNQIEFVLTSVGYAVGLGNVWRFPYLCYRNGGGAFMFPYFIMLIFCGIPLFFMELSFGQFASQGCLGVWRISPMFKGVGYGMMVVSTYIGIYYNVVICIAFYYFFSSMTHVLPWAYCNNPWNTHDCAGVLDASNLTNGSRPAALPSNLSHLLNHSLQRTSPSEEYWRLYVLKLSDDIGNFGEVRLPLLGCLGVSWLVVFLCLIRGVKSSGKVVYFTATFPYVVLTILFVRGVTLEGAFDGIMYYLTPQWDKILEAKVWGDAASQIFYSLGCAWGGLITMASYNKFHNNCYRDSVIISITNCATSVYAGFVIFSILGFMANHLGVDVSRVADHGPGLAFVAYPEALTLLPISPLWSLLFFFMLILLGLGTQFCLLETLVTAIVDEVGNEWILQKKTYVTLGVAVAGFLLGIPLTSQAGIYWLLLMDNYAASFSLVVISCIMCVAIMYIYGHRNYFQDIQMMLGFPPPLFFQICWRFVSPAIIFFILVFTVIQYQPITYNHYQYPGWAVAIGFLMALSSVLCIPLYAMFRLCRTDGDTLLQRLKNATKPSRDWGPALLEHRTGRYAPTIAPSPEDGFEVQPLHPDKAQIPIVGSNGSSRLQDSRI
Assay: Radioligand binding assay using recombinant CHO cell membranes expressing human GlyT1
Settings: radioligand binding to human GlyT1c transporter-expressing membranes
Source text: 2. Radioligand binding assays using recombinant CHO cell membranes expressing human GlyT1: […]

SMILES	Ki [nM]
CCCCC(F)(F)CN[C@H]1CN(S(=O)(=O)c2cn(C)cn2)C[C@@H]1c1ccc(F)cc1 [Example 733, (3R,4S)-N-(2,2-difluorohexyl)-4-(4-fluorophenyl)-1-[(1-methyl-1H-imidazol-4-yl)sulfonyl]pyrrolidin-3-amine]	≤ 10
Cn1cnc(S(=O)(=O)N2C[C@H](Nc3ccc(F)c(OC(F)(F)F)c3)[C@@H](c3ccccc3)C2)c1 [Example 646, (3R,4S)-N-[4-fluoro-3-(trifluoromethoxy)phenyl]-1-[(1-methyl-1H-imidazol-4-yl)sulfonyl]-4-phenylpyrrolidin-3-amine]	≤ 10
Cn1cnc(S(=O)(=O)N2C[C@@H](Nc3ccc(F)c(OC(F)(F)F)c3)[C@H](c3ccccc3)C2)c1 (relative stereo) [Example 298, trans-N-[4-fluoro-3-(trifluoromethoxy)phenyl]-1-[(1-methyl-1H-imidazol-4-yl)sulfonyl] -4-phenylpyrrolidin-3-amine]	≤ 10
Cn1cnc(S(=O)(=O)N2C[C@@H](Nc3cncc(F)c3)[C@H](c3ccccc3)C2)c1 (relative stereo) [Example 237, 5-fluoro-N-{trans-1-[(1-methyl-1H-imidazol-4-yl)sulfonyl]-4-phenylpyrrolidin-3-yl}pyridin-3-amine]	≤ 10000
Cn1cnc(S(=O)(=O)N2C[C@H](NCCC3CCCC3)[C@@H](c3ccccc3)C2)c1 [Example 427, (3R,4S)-N-(2-cyclopentylethyl)-1-[(1-methyl-1H-imidazol-4-yl)sulfonyl]-4-phenylpyrrolidin-3-amine]	≤ 100
Cn1cnc(S(=O)(=O)N2C[C@@H](COc3ccccc3)[C@H](c3ccc(F)cc3)C2)c1 (relative stereo) [Example 245, 4-{[trans-3-(4-fluorophenyl)-4-(phenoxymethyl)pyrrolidin-1-yl]sulfonyl}-1-methyl-1H-imidazole]	≤ 100
Cn1cnc(S(=O)(=O)N2C[C@H](NC(=O)Nc3cccc(F)c3)[C@@H](c3ccc(F)cc3)C2)c1 [Example 703, 1-(3-fluorophenyl)-3-{(3R,4S)-4-(4-fluorophenyl)-1-[(1-methyl-1H-imidazol-4-yl)sulfonyl]pyrrolidin-3-yl}urea]	≤ 1000
Cn1cnc(S(=O)(=O)N2C[C@H](Nc3ccc4sccc4c3)[C@@H](c3ccccc3)C2)c1 [Example 654, (3R,4S)-N-(1-benzothiophen-5-yl)-1-[(1-methyl-1H-imidazol-4-yl)sulfonyl]-4-phenylpyrrolidin-3-amine]	≤ 1000
Cn1cnc(S(=O)(=O)N2C[C@@H](COc3cc(C(F)(F)F)ccn3)[C@H](c3ccc(F)cc3)C2)c1 (relative stereo) [Example 346, 2-({Trans-4-(4-fluorophenyl)-1-[(1-methyl-1H-imidazol-4-yl)sulfonyl]pyrrolidin-3-yl}methoxy)-4-(trifluoromethyl)pyridine]	≤ 1000
Cn1cnc(S(=O)(=O)N2C[C@@H](Nc3cccc(Cl)c3)[C@H](Oc3ccc(F)cc3)C2)c1 (relative stereo) [Example 378, Trans-N-(3-chlorophenyl)-4-(4-fluorophenoxy)-1-[(1-methyl-1H-imidazol-4-yl)sulfonyl]pyrrolidin-3-amine]	≤ 10000
CCCC(CCN[C@H]1CN(S(=O)(=O)c2cn(C)cn2)C[C@@H]1c1ccccc1)OC (stereo partly drawn) [Example 674, (3R,4S)-N-(3-methoxyhexyl)-1-[(1-methyl-1H-imidazol-4-yl)sulfonyl]-4-phenylpyrrolidin-3-amine]	≤ 1000
Cn1cnc(S(=O)(=O)N2C[C@@H](NC(=O)c3ccc(C(F)(F)F)cc3)[C@H](c3ccccc3)C2)c1 (relative stereo) [Example 37, N-{trans-1-[(1-methyl-1H-imidazol-4-yl)sulfonyl]-4-phenylpyrrolidin-3-yl}-4-(trifluoromethyl)benzamide]	≤ 1000
Cn1cnc(S(=O)(=O)N2C[C@@H](Nc3cccc(Cl)c3)[C@H](c3ccc(F)cc3)C2)c1 (relative stereo) [Example 94, trans-N-(3-chlorophenyl)-4-(4-fluorophenyl)-1-[(1-methyl-1H-imidazol-4-yl)sulfonyl]pyrrolidin-3-amine]	≤ 10
CCCCNC[C@@H]1CN(S(=O)(=O)c2cn(C)cn2)C[C@H]1c1ccc(F)cc1 (relative stereo) [Example 595, N-({trans-4-(4-fluorophenyl)-1-[(1-methyl-1H-imidazol-4-yl)sulfonyl]pyrrolidin-3-yl}methyl)butan-1-amine]	≤ 10000
Cn1cnc(S(=O)(=O)N2C[C@@H](Nc3cncc(C(F)(F)F)c3)[C@H](c3ccccc3)C2)c1 (relative stereo) [Example 213, N-{trans-1-[(1-methyl-1H-imidazol-4-yl)sulfonyl]-4-phenylpyrrolidin-3-yl} -5 - (trifluoromethyl)pyridin-3-amine]	≤ 1000
Cn1cnc(S(=O)(=O)N2C[C@@H](C(=O)c3cc(F)cc(Cl)c3)[C@H](c3ccc(F)cc3)C2)c1 (relative stereo) [Example 361, (3-Chloro-5-fluorophenyl){trans-4-(4-fluorophenyl)-1-[(1-methyl-1H-imidazol-4-yl)sulfonyl]pyrrolidin-3-yl} methanone]	≤ 1000
Cn1cnc(S(=O)(=O)N2C[C@@H](NCc3ccc(C(F)(F)F)c(Cl)c3)[C@H](c3ccc(F)cc3)C2)c1 (relative stereo) [Example 151, trans-N-[3-chloro-4-(trifluoromethyl)benzyl]-4-(4-fluorophenyl)-1-[(1-methyl-1H-imidazol-4-yl)sulfonyl]pyrrolidin-3-amine]	≤ 100
Cn1cnc(S(=O)(=O)N2C[C@@H](Nc3cccc(C#N)c3F)[C@H](c3ccccc3)C2)c1 (relative stereo) [Example 77, 2-fluoro-3-({trans-1-[(1-methyl-1H-imidazol-4-yl)sulfonyl]-4-phenylpyrrolidin-3-yl}amino)benzonitrile]	≤ 1000
Cn1cnc(S(=O)(=O)N2C[C@H](Nc3cccc(Cl)c3)[C@@H](c3ccc(F)cc3)C2)c1 [Example 328, (3R,4S)-N-(3-chlorophenyl)-4-(4-fluorophenyl)-1-[(1-methyl-1H-imidazol-4-yl)sulfonyl]pyrrolidin-3-amine]	≤ 100
Cn1cnc(S(=O)(=O)N2C[C@H](Nc3cccc(S(C)(=O)=O)c3)[C@@H](c3ccccc3)C2)c1 [Example 422, (3R,4S)-1-[(1-methyl-1H-imidazol-4-yl)sulfonyl]-N-[3-(methylsulfonyl)phenyl]-4-phenylpyrrolidin-3-amine]	≤ 1000
Cc1ccccc1CN[C@@H]1CN(S(=O)(=O)c2cn(C)cn2)C[C@H]1c1ccc(F)cc1 (relative stereo) [Example 153, trans-4-(4-fluorophenyl)-N-(2-methylbenzyl)-1-[(1-methyl-1H-imidazol-4-yl)sulfonyl]pyrrolidin-3-amine]	≤ 1000
Cn1cnc(S(=O)(=O)N2C[C@@H](Nc3ccc(F)cc3)[C@H](c3ccccc3Cl)C2)c1 (relative stereo) [Example 253, trans-4-(2-chlorophenyl)-N-(4-fluorophenyl)-1-[(1-methyl-1H-imidazol-4-yl)sulfonyl]pyrrolidin-3-amine]	≤ 1000
Cn1cnc(S(=O)(=O)N2C[C@@H](Nc3ccc(F)c(Cl)c3)[C@H](c3ncccc3F)C2)c1 (relative stereo) [Example 771, Trans-N-(3-chloro-4-fluorophenyl)-4-(3-fluoropyridin-2-yl)-1-[(1-methyl-1H-imidazol-4-yl)sulfonyl]pyrrolidin-3-amine]	≤ 100
Cc1nc(CN[C@H]2CN(S(=O)(=O)c3cn(C)cn3)C[C@@H]2c2ccccc2)cs1 [Example 533, (3R,4S)-1-[(1-methyl-1H-imidazol-4-yl)sulfonyl]-N-[(2-methyl-1,3-thiazol-4-yl)methyl]-4-phenylpyrrolidin-3-amine]	≤ 10000
Cn1cnc(S(=O)(=O)N2C[C@@H](Nc3ccc(C(F)(F)F)cc3)[C@H](c3ccc(F)cc3)C2)c1 (relative stereo) [Example 89, trans-4-(4-fluorophenyl)-1-[(1-methyl-1H-imidazol-4-yl)sulfonyl]-N-[4-(trifluoromethyl)phenyl]pyrrolidin-3-amine]	≤ 100
Cn1cnc(S(=O)(=O)N2C[C@H](Nc3cccc(C(C)(O)C(F)(F)F)c3)[C@@H](c3ccc(F)cc3)C2)c1 (stereo partly drawn) [Example 392, 1,1,1-trifluoro-2-[3-({(3R,4S)-4-(4-fluorophenyl)-1-[(1-methyl-1H-imidazol-4-yl)sulfonyl]pyrrolidin-3-yl}amino)phenyl]propan-2-ol]	≤ 100

Same assay, conditions: radioligand binding, recombinant CHO cell membranes expressing human GlyT1c

SMILES	Ki [nM]
Cn1cc(S(=O)(=O)N2C[C@H](Nc3ccc(F)c(Cl)c3)[C@@H](c3ccc(F)cc3)C2)nn1 [Example 842, (3R,4S)-N-(3-chloro-4-fluorophenyl)-4-(4-fluorophenyl)-1-[(1-methyl-1H-1,2,3-triazol-4-yl)sulfonyl]pyrrolidin-3-amine]	≤ 10
Cn1cnc(S(=O)(=O)N2C[C@@H](Nc3cccc(OC(F)(F)F)c3)[C@H](C3CCOC3)C2)c1 (relative stereo) [Example 835, trans-1-[(1-methyl-1H-imidazol-4-yl)sulfonyl]-4-(tetrahydrofuran-3-yl)-N-[3-(trifluoromethoxy)phenyl]pyrrolidin-3-amine]	≤ 1000
